Reference: patent US20250241891A1, “TREATMENT OF ANXIETY” (GH RESEARCH IRELAND LIMITED, priority 2022, published 2025)

System: patients with postpartum depression (PPD)
Assay: Clinical trial of inhaled 5-MeO-DMT in postpartum depression (MADRS, BPRS, BIMF, PES, safety)
Protocol: The single-arm, open-label clinical trial will involve 15 adult female patients with clinically diagnosed postpartum depression (PPD).
The second dose (12 mg) will only be administered if: • a. […] The 6 mg dose was safe and well-tolerated according to the investigator, • c. Any psychoactive effects (PsE) of the prior dose have subsided, and • d. Pre-dose vital parameters and forced expiratory volume in one second (FEV1) are in normal range, or if outside of the normal range, are not clinically significant according to the investigator. • 3. Similarly, a third dose (18 mg) will only be administered if: • a. […] The 12 mg dose was safe and well-tolerated according to the investigator, and • c. Any PsE of the prior dose have subsided, and • d. Pre-dose vital parameters and forced expiratory volume in one second (FEV1) are in normal range, or if outside of the normal range, are not clinically significant according to the investigator.
The patients will be assessed for a peak psychedelic experience (based on a patient-scored visual analogue scale, the PE scale), sedation, and other endpoints after dosing. Follow-up visits are planned for Day 1, and Day 7 after the dosing day.
The following criteria must be met by all patients considered for clinical trial participation: • 1. Is female and in the age range between 18 and 45 years (inclusive) at screening. • 2. Has a body mass index (BMI) in the range of 18.5 and 35 kg/m^2 (inclusive) at screening. • 3. Meets the trial criteria for PPD as assessed by a trial psychiatrist or registered psychologist: • a. Diagnosis of Major Depressive Disorder without psychotic features, confirmed by the Mini-International Neuropsychiatric Interview (MINI), with peri-partum onset that began no earlier than gestation and no later than the first 4 weeks postpartum. • b. Has a Montgomery-Åsberg Depression Rating Scale (MADRS) total score of equal to or greater than 28 at screening and pre-dose on Day 0. • 6. […] Patients must have a negative pregnancy test at screening and on the pre-test day (Day −1). • 5. Is willing to delay start of other antidepressant or anxiety medication until after the end of the trial at Day 7 and agrees to keep any psychotherapy unchanged during the trial.
A potential patient who meets any of the following key exclusion criteria will be excluded from participation in this trial: • 1. Has, based on history, psychiatric assessment, and evaluation of the MINI, a current or prior diagnosis of bipolar disorder, a manic or hypomanic episode, a psychotic disorder, Major Depressive Disorder (MDD) or other mood disorder with psychotic features, obsessive compulsive disorder, post-traumatic stress disorder (PTSD), autism spectrum disorder, borderline personality disorder, schizophrenia, delusional disorder, paranoid personality disorder, schizoaffective disorder, clinically significant intellectual disability, or any other psychiatric comorbidity that renders the patient unsuitable for the trial according to the investigator's judgment. • 2. Has one or more first or second degree relatives with a current or previously diagnosed bipolar disorder, psychotic disorder or other mood disorder (including MDD) with psychotic features. • 3. Is in the judgement of a trial psychiatrist or registered psychologist, at significant risk for suicide based on history, psychiatric assessment, and evaluation of suicidal ideation and suicidal behaviour based on the Columbia-Suicide Severity Rating Scale (C-SSRS). • 4. Has taken anti-depressive medication within 14 days or 5 half-lives (whichever is longer) prior to dosing (exception: within the last 5 weeks in the case of fluoxetine). • 5.

[1] = PPD n=1, IDR 6+12 mg inhaled, day 1, baseline 5
[2] = PPD n=1, IDR 6+12 mg inhaled, day 1, baseline 6
[3] = PPD n=1, IDR 6+12 mg inhaled, day 1, baseline 7
[4] = PPD n=1, IDR 6+12 mg inhaled, day 7, baseline 0
[5] = PPD n=1, IDR 6+12 mg inhaled, day 7, baseline 1
[6] = PPD n=1, IDR 6+12 mg inhaled, day 7, baseline 2
[7] = PPD n=1, IDR 6+12 mg inhaled, day 7, baseline 3
[8] = PPD n=1, IDR 6+12 mg inhaled, day 7, baseline 4
[9] = PPD n=1, IDR 6+12 mg inhaled, day 7, baseline 5
[10] = PPD n=1, IDR 6+12 mg inhaled, day 7, baseline 6
[11] = PPD n=1, IDR 6+12 mg inhaled, day 7, baseline 7
[12] = PPD n=1, IDR 6+12 mg inhaled, discharge, baseline 1
[13] = PPD n=1, IDR 6+12 mg inhaled, discharge, baseline 2
[14] = PPD n=1, IDR 6+12 mg inhaled, discharge, baseline 5
[15] = PPD n=1, IDR 6+12 mg inhaled, discharge, baseline 6
[16] = PPD n=1, IDR 6+12 mg inhaled, discharge, baseline 7

COc1ccc2[nH]cc(CCN(C)C)c2c1 [5-MeO-DMT]
6: BPRS Anxiety improvement [3] | BPRS Anxiety improvement [11] | BPRS Anxiety improvement [16]
3: MADRS Inability to Feel improvement [7] | MADRS Lassitude improvement [7]
4: MADRS Pessimistic Thoughts improvement [8] | MADRS Reported sadness improvement [8] | BPRS Emotional withdrawal improvement [9] | MADRS Inner Tension improvement [9] | BPRS Emotional withdrawal improvement [14]
5: MADRS Reduced Sleep improvement [1] | BPRS Depressive Mood improvement [2] | BPRS Guilt feelings improvement [2] | BPRS Somatic Concern improvement [2] | BPRS Tension improvement [2] | MADRS Apparent sadness improvement [9] | MADRS Reduced Sleep improvement [9] | BPRS Depressive Mood improvement [10] | BPRS Guilt feelings improvement [10] | BPRS Somatic Concern improvement [10] | BPRS Tension improvement [10] | BPRS Depressive Mood improvement [15] | BPRS Guilt feelings improvement [15] | BPRS Somatic Concern improvement [15]
0: MADRS Reduced Sleep score [1] | MADRS Concentration Difficulties improvement [4] | MADRS Concentration Difficulties score [4] | MADRS Reduced appetite improvement [4] | MADRS Reduced appetite score [4] | MADRS Suicidal Thoughts improvement [4] | MADRS Suicidal Thoughts score [4] | BPRS Blunted affect improvement [5] | BPRS Conceptual disorganization improvement [5] | BPRS Disorientation improvement [5] | BPRS Grandiosity improvement [5] | BPRS Hallucinatory behaviour improvement [5] | BPRS Hostility improvement [5] | BPRS Mannerisms and Posturing improvement [5] | BPRS Motor retardation improvement [5] | BPRS Suspiciousness improvement [5] | BPRS Uncooperativeness improvement [5] | BPRS Unusual Thought Content improvement [5] | MADRS Inability to Feel score [7] | MADRS Lassitude score [7] | MADRS Pessimistic Thoughts score [8] | MADRS Reported sadness score [8] | MADRS Apparent sadness score [9] | MADRS Reduced Sleep score [9] | BPRS Blunted affect improvement [12] | BPRS Conceptual disorganization improvement [12] | BPRS Disorientation improvement [12] | BPRS Grandiosity improvement [12] | BPRS Hallucinatory behaviour improvement [12] | BPRS Hostility improvement [12] | BPRS Mannerisms and Posturing improvement [12] | BPRS Motor retardation improvement [12] | BPRS Suspiciousness improvement [12] | BPRS Uncooperativeness improvement [12] | BPRS Unusual Thought Content improvement [12]
unremarkable: ECG, safety laboratory analyses and CADSS assessments (PPD n=1, ECG 3 hours, laboratory 7 days, CADSS 3 hours, 1 day and 7 days)
1: BPRS Depressive Mood score [2] | BPRS Guilt Feelings score [2] | BPRS Somatic Concern score [2] | BPRS Tension score [2] | BPRS Anxiety score [3] | BPRS Blunted Affect score [5] | BPRS Conceptual disorganization score [5] | BPRS Disorientation score [5] | BPRS Grandiosity score [5] | BPRS Hallucinatory behaviour score [5] | BPRS Hostility score [5] | BPRS Mannerisms and Posturing score [5] | BPRS Motor retardation score [5] | BPRS Suspiciousness score [5] | BPRS Uncooperativeness score [5] | BPRS Unusual Thought Content score [5] | BPRS Excitement improvement [6] | BPRS Excitement score [6] | BPRS Emotional Withdrawal score [9] | MADRS Inner Tension score [9] | BPRS Depressive Mood score [10] | BPRS Guilt Feelings score [10] | BPRS Somatic Concern score [10] | BPRS Tension score [10] | BPRS Anxiety score [11] | BPRS Blunted Affect score [12] | BPRS Conceptual disorganization score [12] | BPRS Disorientation score [12] | BPRS Grandiosity score [12] | BPRS Hallucinatory behaviour score [12] | BPRS Hostility score [12] | BPRS Mannerisms and Posturing score [12] | BPRS Motor retardation score [12] | BPRS Suspiciousness score [12] | BPRS Uncooperativeness score [12] | BPRS Unusual Thought Content score [12] | BPRS Excitement improvement [13] | BPRS Excitement score [13] | BPRS Emotional Withdrawal score [14] | BPRS Depressive Mood score [15] | BPRS Guilt Feelings score [15] | BPRS Somatic Concern score [15] | BPRS Tension score [15] | BPRS Anxiety score [16]
